Assay results from patent US20220168384A1, “Anti-Bacterial Combination Therapy” (McMaster University, priority 2019, published 2022).

What was measured:
[1] = tested on: Acinetobacter baumannii clinical isolates; experiment: Clinical isolates testing, A. baumannii; format: cell-based; conditions: 10:90
Method: (§1) Clinical isolates of P. aeruginosa and A. baumannii were inoculated from −80° C. stocks into 200 μL LB broth and grown with shaking at 200 rpm, 16 h, 37° C. in Nunc 96-well plates. The overnight cultures were subcultured (1:25 dilution) into 10:90 and grown with shaking at 200 rpm, 2 h, 37° C. Vehicle controls consisted of 4 μL of DMSO, 144 μL 10:90 and 2 μL of subculture. Sterile controls consisted of 4 μL of DMSO and 146 μL 10:90. […]. The final volume of each well was 150 μL and each checkerboard was repeated at least three times. Plates were incubated with shaking at 200 rpm, 16 h, 37° C. and OD600 was measured (Multiskan Go—Thermo Fisher Scientific). The results were plotted as percent of control (wells containing only DMSO) using Prism (GraphPad).
(§2) Clinical isolates were grown and tested as described in Example 1. Briefly, clinical isolates were inoculated from glycerol stocks stored at −80° C. into Nunc 96-well plates and grown overnight at 37° C., for 16 h with shaking in LB (200 rpm). Overnights were subcultured (1:25) into fresh 10:90 medium and grown for 2 h under the same growth conditions. Subcultures were diluted 1:75 in fresh 10:90. Compounds were diluted 1:75 to obtain the final concentration. DOXY and CLI were added at a final concentration of 1 μg/mL, CO was used at 2 μg/mL, TRO was used at 4 μg/mL, TS was used at 8.3 μg/mL, and DSX was used at 32 μg/mL. Vehicle and sterility controls were included. Plates were incubated overnight with the same conditions. The OD600 was read (Multiscan Go—Thermo Fisher Scientific), analyzed using Excel, and the data plotted using Prism (GraphPad).
(§3) Culture conditions, checkerboard assays using P. aeruginosa PA14 and dose-response assays were performed as described in Example 1. In addition to TS, other thiopeptides tested were siomycin A (SM), thiocillin I (TC), micrococcin P1 (MC), nosiheptide (NH), berninamycin A (BER), and geninthiocin A (GEN). For dose response assays of the combinations conducted in 10:90, DSX concentration was constant at 64 μg/mL.

[2] = tested on: P. aeruginosa clinical isolates; experiment: Clinical isolates testing, P. aeruginosa; format: cell-based, Pseudomonas aeruginosa; conditions: Pseudomonas aeruginosa; approximately 1 in 10 of 96 clinical isolates; 10:90
Method: as §1, §2, §3

[3] = tested on: P. aeruginosa PAO1 and PA14 expressing Tsr; experiment: TS susceptibility of P. aeruginosa expressing tsr in trans from pUCP20; format: cell-based, Pseudomonas aeruginosa; conditions: VBMM
Method: A) Growth of PAO1; B) Growth of PA14. Each assay was performed at least 3 times in triplicate; **** p<0.0001.
The tsr gene from pIJ6902 was PCR-amplified using primers 5′[…]-3′ and 5′[…]-3′. Both the PCR product and pUCP20 vector were digested with SmaI and HindIII, gel-purified, and ligated at a 1:3 molar ratio using T4 DNA ligase. The ligated DNA was transformed into E. coli DH5a and transformants selected on LB agar containing 100 μg/mL ampicillin and 5-bromo-4-chloro-3-indolyl-β-D-galactopyranoside for blue-white selection. Plasmids from white colonies were purified using a GeneJet Plasmid Miniprep kit (Thermo Scientific) following the manufacturer's protocols. After verification by restriction digest and DNA sequencing, pUCP20 and pUCP20-tsr were each introduced into P. aeruginosa PAO1 and PA14 by electroporation. Transformants were selected on LB agar containing 200 μg/mL carbenicillin.

C=C(NC(=O)C(=C)NC(=O)c1csc(C2=N[C@@H]3c4csc(n4)[C@H]4NC(=O)c5csc(n5)[C@H]([C@](C)(O)[C@@H](C)O)NC(=O)[C@H]5CSC(=N5)/C(=C/C)NC(=O)[C@H]([C@@H](C)O)NC(=O)c5csc(n5)[C@]3(CC2)NC(=O)[C@H](C)NC(=O)C(=C)NC(=O)[C@H](C)NC(=O)[C@H]([C@@H](C)CC)N[C@@H]2C=Cc3c([C@H](C)O)cc(nc3[C@H]2O)C(=O)O[C@@H]4C)n1)C(N)=O [TS, thiostrepton] was tested, and the “susceptibility of A. baumannii strain C0286” value [1] was “resistant”, the activity at 5 µM ([1]; Acinetobacter baumannii, 5 μM TS, 6 of 10 strains, read-out: growth, % of control) was at most 50% and the MIC [2] was at least 5 µM. The “resistance to TS compared to vector-only control” value ([3]; PA14 expressing tsr in trans (pUCP20-tsr)) was “significantly increased” and the “TS concentration up to which the strain was resistant” value ([3]; PAO1 expressing tsr in trans (pUCP20-tsr)) was 10 µM.
